Test results from patent US20110016537A1, “Cellular model of tauopathies for lead identification and drug discovery” (Georg-August-Universitat Gottingen Stifung offentl, priority 2003, published 2011).

Key:
[1] = tested on: SHSY5Y neuroblastoma cells; experiment: Apoptosis detection (TUNEL, activated caspase-3 immunolabeling) in SHSY5Y cells; format: cell-based, human; conditions: for cells showing signs of apoptosis (TUNEL): 48 h. post transfection
Source text: (§1) In order to analyse apoptosis induction in SHSY5Y neuroblastoma cells transfected with wild-type and triple mutant tau, the TUNEL method was used to label fragmented nuclear DNA, a characteristic marker of apoptosis. This was combined with the assessment of a second pathomorphological criteria: shrunken cell body with sparse cytosol and rounded cell morphology. Such a combination of criteria is considered sufficient to identify positively the occurrence of apoptosis (Stadelmann and Lassmann (2000) Cell Tissue Res. 301, 19-31). Since 48 hours after transfection a significant decrease in cell number and apparent cell degeneration is observed, this timepoint was chosen for the comparative analysis. At this timepoint the mode of degeneration, if apoptotic, should have been obvious. […] In FIG. 5a, apoptotic and non-apoptotic M123-transfected cells are shown, as well as a positive 50 nM staurosporin-treated neuroblastoma control. […] Activated caspase-3 immunolabeling, however, detected 18.66±0.93% apoptotic cells in M123 transfected neuroblastoma cells vs. 3.62±1.87% in wild-type transfected cells (p<0.01, Mann-Whitney U-test). The reason for this atypical apoptosis presentation in our system is unknown and awaits further elucidation. Next, in order to assess the real biological significance of apoptosis in the process of cell elimination, specific cell-permeable caspase-3 inhibitor and cytochrome c release inhibitor (both from Calbiochem, Germany) were used. Cells were treated 24 h. post transfection immediately after counting their reference number and incubated with apoptosis inhibitors until 60 h. post transfection in order to cover the time window with the highest decrease in cell number. […]

CHO cells [2] = experiment: Morphological aggregate formation after transfection in CHO cells; format: cell-based, Chinese hamster; conditions: 24 hrs post transfection
Description: On the contrary—in areas with bulky aggregation a deficit of the normal cytoskeletal configuration was observed. In order to visualize a difference in the biophysical properties of tau and aggregating mutants, FRAP (fluorescent recovery after photobleaching) analysis was performed in CHO-cells 24 hours after transfection, using wild-type tau and the triple (M123) mutant. Tau tagged with GFP represents a perfect tool for aggregation examination in living cells in real time. Apparent differences were found between wild-type tau and the triple mutant.
Transfection of cells was performed, using the Effectene Transfection Kit (Qiagen, Germany) according to the manufacturers instructions. Following addition of 4-8 μl enhancer solution, 0.5-1 μg DNA were incubated with 10 μl Effectene and 85 μl transfection buffer. All plasmids were purified using EndoFree Maxi Kit (Qiagen, Germany).
Confocal imaging was performed with a Leica TCS SP2 confocal system fitted with an AOBS (acousto-optical beam splitter) (Leica, Germany). The objectives used were 63× water or oil immersion; adjustments were as follows: Beam Expander 3, PMT—600-700 V, pinhole 1-1.4 airy disc, zoom—variable. Luminophore excitation was performed with an Argon-ion laser at 488 nm (for GFP), GreNe laser at 543 nm (for Cy3) and HeNe 643 nm (for Cy5).

[3] = tested on: SHSY5Y neuroblastoma cells; experiment: Phosphoepitope immunocytochemistry (AT8, AT100, AT180) in SHSY5Y neuroblastoma cells; format: cell-based, human
Description: In order to examine the neurotoxicity of the mutant tau variants in human neuronal cell line, SHSY5Y neuroblastomas were used and the cell number of each preparation at 48 and 72 hours post transfection was normalized to the cell number in the same dish at 24 hours. […] The same effect was observed by the double mutants. Further, the presence of two specific pathological phosphoepitopes was tested using phosphospecific antibodies—AT8 (S202/T205 specific) and AT100 (T212/S214), the latter being exclusively specific for Alzheimer's disease NFTs and generally considered as the only AD-specific antibody by experts in the field of neuropathology. […] In the mutants (especially in the double and triple mutants) there was a very strong AT8 labeling, reaching 83.24±5.45% in M123 (FIG. 4c). […] This was accompanied by early phosphorylation, colocalizing with the initial tau aggregates. […] This mutant completely lacked a fragment which contains most phosphorylation sites of the projection domain (including the corresponding sites for AT8, AT100, AT180, AT270), thus confirming the independence of aggregation and phosphorylation. […] Another phosphoepitope that is highly specific for AD—T212/S214 (recognized by AT100 antibody), was present especially in double and triple mutants (FIG. 4d). In contrast to AT8, this immunolabeling was not observed in all aggregates, but only in those with bulky rounded or oval shape. […] Obviously, the formation of the T212/S214 phosphoepitope requires, apart from S202/T205 phosphoepitope formation (Schneider et al. (1999) Biochemistry 38, 3549-3558), also a specific conformational modification, apparently achieved with increase of mutant epitope number. In the M123 mutant 22.13±2.87% were also AT180 immunopositive (phosphoepitope T231) vs. none in wild-type tau transfectants (not shown). In order to assess the relative contribution of the aggregation, S202/T205 and T212/S214 phosphorylation to cell toxicity, multiple correlation analyses were performed. […]

CHO cells [4] = experiment: AT8-detected phosphorylation in CHO cells; format: cell-based, Chinese hamster; conditions: CHO cells (data not shown)
[5] = tested on: SHSY5Y neuroblastoma cells; experiment: Cell survival of M123-transfected SHSY5Y cells with apoptosis inhibitors; format: cell-based, human; conditions: inhibitors on M123-transfected cells from 24 h. until 60 h. post transfection
Source text: as §1, with “elucidation.” for “elucidation. Next, in order to assess the real biological significance of apoptosis in the process of cell elimination, specific cell-permeable caspase-3 inhibitor and cytochrome c release inhibitor (both from Calbiochem, Germany) were used. Cells were treated 24 h. post transfection immediately after counting their reference number and incubated with apoptosis inhibitors until 60 h. post transfection in order to cover the time window with the highest decrease in cell number.”

| Molecule | cells showing signs of apoptosis (TUNEL) [1] | formation of morphologically apparent aggregates (CHO cells [2]) | AT100 (T212/S214) immunolabeling [3] | AT180 (phosphoepitope T231) immunopositive cells [3] | AT8 (S202/T205) immunolabeled cells ([3]; 36 h. after transfection) [%] | AT8-detected phosphorylation (CHO cells [4]) | apoptotic cells by activated caspase-3 immunolabeling [1] [%] | cell survival [5] [%] |
| --- | --- | --- | --- | --- | --- | --- | --- | --- |
| CN[C@@H]1C[C@H]2O[C@@](C)([C@@H]1OC)n1c3ccccc3c3c4c(c5c6ccccc6n2c5c31)C(=O)NC4 [staurosporin] | TUNEL-positive nuclei |  |  |  |  |  |  |  |
| wild-type tau: wild-type human tau 441, SEQ ID NO.:25, used as control [reference compound] | 5.97±1.54% | normal MT (microtubule) association without aggregates | did not label | none | 9.17±2.3 | only a slight pattern | 3.62±1.87 | 87.86±12.4 |
